Laboratory results from US20160089401A1, “USES OF TREHALOSE IN CELL SUSPENSIONS” (Cook General Biotechnology LLC, priority 2014, published 2016).

How the values were obtained:
[1] = tested on: canine uterine regenerative cells (mesenchymal stem cell populations obtained from canine uterine tissue); test: Post-bag cell viability by trypan blue staining; assay type: cell-based
Procedure: After time in the bag had expired, the cells were carefully removed from the bag with a syringe and 18 gauge needles. This volume was carefully placed in a 50 mL conical flask. It was mixed to ensure even distribution of cells, then mixed 1:1 with trypan blue and counted to determine viability. The volume was then centrifuged at 400 g for 5 minutes, supernatant aspirated, and resuspended in 2mL complete media. 1 mL of this cell suspension was then plated into a T25 flask. 24 hours later, the plates were observed and the condition of the cells noted.

[2] = tested on: canine uterine regenerative cells (mesenchymal stem cell populations obtained from canine uterine tissue); test: Clumping of thawed previously-cryopreserved cells in saline bags with candidate anti-clumping agents; assay type: cell-based
Procedure: The cells used in this Example were purified mesenchymal stem cell populations obtained from canine uterine tissue (from passage 5). The cells were frozen in cryovials in 2% DMSO in VetStarch. The frozen cell samples were provided as 2 mL aliquots with a cell density of 10 million cells/mL. Cells from 3 different canine donors were included n the testing, labeled herein as Donor1; Donor2 and Donor3.
Experiments were performed in 50 mL bags commonly used for saline solutions to be administered to the bloodstream of patients. The experimental volume for the prepared cell suspension was between 5-10 mL depending on the run. Chemicals tested for their anti-clumping ability included dextrose, hydroxyethyl starch, and trehalose. Concentrations of these chemicals varied between experiments. Solutions of anti-clumping agents were prepared then injected into the bags. Concentration and volumes were computed so that targeted concentrations of anti-clumping agents were reached once the cells were injected in the bag. Volumes were chosen so that the cells were at one million cells/mL after preparation of the final composition in the bags.
Cryovials containing the cells were thawed in a 37° C. water bath until ice crystals just thawed. Cells were drawn out of the vial through a needle septum of the vial with an 18 gauge needle and slowly added to the bag through a needle septum of the bag so as not to lyse the cells. The vial was then washed with saline and this wash volume was also carefully injected into the bag through the needle septum.

[3] = Donor2 cells, 1 million/mL, trehalose 1.65%
[4] = Donor2 cells, 1 million/mL, trehalose 3.3%
[5] = summary, previously-cryopreserved cells after thawing

With `OC[C@H]1O[C@H](O[C@H]2O[C@H](CO)[C@@H](O)[C@H](O)[C@H]2O)[C@H](O)[C@@H](O)[C@@H]1O` [trehalose, (2R,3S,4S,5R,6R)-2-(hydroxymethyl)-6-[(2R,3R,4S,5S,6R)-3,4,5-trihydroxy-6-(hydroxymethyl)oxan-2-yl]oxyoxane-3,4,5-triol] the “viability by trypan blue staining” value ([1]; Donor1 cells, end of clumping experiment, trehalose 3.3%, hydroxyethyl starch 25% in final preparation) was 94%, the cell viability ([1]; summary, after exposure for an estimated duration of cell infusion) was “above 90%” and the “clumps after 80 minutes” value ([2]; Donor1 cells (section 1.7 run), 1 million/mL, trehalose 3.3%) was “essentially all clumps were very small and barely visible with the exception of one or two slightly larger clumps”. For the same compound, the “time at which some clumping was observed” value ([2]; Donor1 cells (section 1.7 run), 1 million/mL, trehalose 3.3%, barely visible, very small clumps) was 20 min, the “clumps after 80 minutes” value ([2]; Donor1 cells, 1 million/mL, trehalose 3.3% in final preparation) was “no clumps formed” and the “clumps after 80 minutes” value [2, 3] was “a few stringy clumps”. For the same compound, the “time at which small clumps began to form” value [2, 3] was 20 min, the “clumps after 80 minutes” value [2, 4] was “only several clumps and they remained small” and the “time at which small clumps began to form” value [2, 4] was 20 min. For the same compound, the “clumps after 80 minutes” value ([2]; Donor3 cells, 1 million/mL, trehalose 3.3%) was “only several very small clumps and they were still barely visible”, the “time at which clumps began to form” value ([2]; Donor3 cells, 1 million/mL, trehalose 3.3%, clumps very small and barely visible) was 20 min and the “reduction of cell clumping as compared to saline alone” value [2, 5] was “greatly reduces clumping”. For the same compound, the “size/appearance of clumps present” value [2, 5] was “tiny generally spheroid particles barely visible to the human eye”.
